ChEMBL document CHEMBL2311386, “Alkyl substituted 2'-benzoylpyridine thiosemicarbazone chelators with potent and selective anti-neoplastic activity: novel ligands that limit methemoglobin formation” (J Med Chem, 2013)

Assays:
[1] = Toxicity in intact human RBC assessed as methemoglobin formation using Fe(compound)2 complex at 25 uM after 3 hrs relative to untreated control; assay type: cell-based; settings: erythrocyte
[2] = Toxicity in human RBC lysates assessed as methemoglobin formation using Fe(compound)2 complex at 25 uM after 3 hrs relative to control; set-up: species or system Lysate; settings: erythrocyte
[3] = Toxicity in human RBC lysates assessed as methemoglobin formation at 25 uM after 3 hrs relative to control; set-up: species or system Lysate; settings: erythrocyte
[4] = Therapeutic index, ratio of IC50 for human MRC5 cells to IC50 for human SK-N-MC cells; assay type: cell-based; settings: MRC5 cells and SK-N-MC cells, read-out: Ratio IC50
SK-N-MC [5] = assay: Cytotoxicity against human SK-N-MC cells assessed as growth inhibition after 72 hrs by MTT assay; assay type: functional, cell-based
[6] = Toxicity in intact human RBC assessed as methemoglobin formation at 25 uM after 3 hrs relative to untreated control; assay type: cell-based; settings: erythrocyte
SK-N-MC [7] = assay: Reduction of cellular 59Fe uptake from 59Fe-Transferrin in human SK-N-MC cells assessed as 59Fe level prelabeled with 59Fe2-Tf at 25 uM after 3 hrs relative to control; assay type: functional; set-up: scale not given: the % may be the effect or the level left
[8] = Toxicity in human RBC lysates assessed as methemoglobin formation at 25 uM after 3 hrs (reference value: 1.2 +/- 8%); assay type: cell-based, Lysate; settings: erythrocyte
MRC5 = assay: Cytotoxicity against human MRC5 cells assessed as growth inhibition after 72 hrs by MTT assay; assay type: cell-based; settings: MRC5, 72 h
[9] = Induction of ascorbate oxidation in citrate buffer in presence of 10 uM Fe3+ at 1 to 60 uM; assay type: physicochemical
[10] = Toxicity in intact human RBC assessed as methemoglobin formation using Fe(compound)2 complex at 25 uM after 3 hrs relative to free ligand; settings: erythrocyte

Row | Activity [9] | SMILES | Activity [1] | Activity [2] | Activity [3] | selectivity ratio [4] | IC50 (SK-N-MC [5]) | Activity [6] | Activity (SK-N-MC [7]) | Activity [8] | fold change (FC) [6] | IC50 (MRC5) | fold change (FC) [10]
1 | – | CNC(=S)N/N=C(\c1ccccc1)c1ccccn1 | Non-toxic | Non-toxic | Non-toxic | 116 | 20 nM | Non-toxic | – | – | – | – | –
2 | – | NC(=S)N/N=C/c1ncccc1N [TRIAPINE] | – | – | – | – | – | – | 54% | 17% | 38 | – | –
3 | – | Cc1ccc(/C(=N\NC(=S)Nc2ccccc2)c2ccccn2)cc1 | Non-toxic | Non-toxic | Non-toxic | 63 | 24 nM | Non-toxic | – | – | – | 1520 nM | –
4 | – | CC(=O)N(O)CCCCCNC(=O)CCC(=O)N(O)CCCCCNC(=O)CCC(=O)N(O)CCCCCN [DEFEROXAMINE] | – | – | – | – | – | – | 77% | – | – | – | –
5 | Not Active | CN(C)C(=S)N/N=C(\c1ccc(C(C)(C)C)cc1)c1ccccn1 | Non-toxic | – | – | 15 | 72 nM | Non-toxic | – | – | – | 1070 nM | –
6 | Not Active | CN(C)C(=S)N/N=C(\c1ccccc1)c1ccccn1 | – | – | – | 202 | 5 nM | – | – | – | – | – | –
7 | – | CNC(=S)N/N=C(\c1ccc(C)cc1)c1ccccn1 | Non-toxic | Toxic | Toxic | 141 | 15 nM | Non-toxic | 8% | – | – | 2120 nM | –
8 | – | COc1ccc(/C(=N\NC(=S)Nc2ccccc2)c2ccccn2)cc1 | Non-toxic | Non-toxic | Non-toxic | 45 | 19 nM | Non-toxic | – | – | – | 864 nM | –
9 | Not Active | Cc1ccc(/C(=N\NC(=S)N(C)C)c2ccccn2)cc1 | Non-toxic | – | – | 131 | 7 nM | Non-toxic | 8% | – | – | 921 nM | –
10 | – | S=C(N/N=C(\c1ccccc1)c1ccccn1)Nc1ccccc1 | Non-toxic | Non-toxic | Non-toxic | 36 | 16 nM | Non-toxic | – | – | – | 571 nM | –
11 | Not Active | COc1ccc(/C(=N\NC(=S)N(C)C)c2ccccn2)cc1 | Non-toxic | – | – | 66 | 17 nM | Non-toxic | 8% | – | – | 1140 nM | –
12 | Active | COc1ccc(/C(=N\NC(N)=S)c2ccccn2)cc1 | Toxic | Non-toxic | Non-toxic | > 3 | 3950 nM | Toxic | 8% | – | – | > 12500 nM | –
13 | – | CCNC(=S)N/N=C(\c1ccc(C(C)(C)C)cc1)c1ccccn1 | Non-toxic | Non-toxic | Non-toxic | 147 | 20 nM | Non-toxic | – | – | – | 2940 nM | –
14 | Active | CC(C)(C)c1ccc(/C(=N\NC(N)=S)c2ccccn2)cc1 | Non-toxic | Non-toxic | Non-toxic | 58 | 14 nM | Non-toxic | – | – | – | 814 nM | –
15 | Active | CN(C)C(=S)NN=C(c1ccccn1)c1ccccn1 | – | – | – | – | 7 nM | – | 4% | 12% | 45 | – | 2.3
16 | – | CNC(=S)N/N=C(\c1ccc(OC)cc1)c1ccccn1 | Non-toxic | Non-toxic | Non-toxic | 92 | 22 nM | Non-toxic | 8% | – | – | 2030 nM | –
17 | – | CCNC(=S)N/N=C(\c1ccc(OC)cc1)c1ccccn1 | Non-toxic | Non-toxic | Non-toxic | 102 | 16 nM | Non-toxic | 8% | – | – | 1650 nM | –
18 | – | CCNC(=S)N/N=C(\c1ccc(C)cc1)c1ccccn1 | Non-toxic | Non-toxic | Non-toxic | 164 | 13 nM | Non-toxic | 8% | – | – | 2140 nM | –
19 | Active | NC(=S)N/N=C(\c1ccccc1)c1ccccn1 | Toxic | Non-toxic | Non-toxic | > 3 | 3800 nM | Toxic | – | – | – | > 12500 nM | –
20 | – | CC(C)(C)c1ccc(/C(=N\NC(=S)Nc2ccccc2)c2ccccn2)cc1 | Non-toxic | Non-toxic | Non-toxic | 17 | 109 nM | Non-toxic | – | – | – | 1890 nM | –
21 | – | CCNC(=S)N/N=C(\c1ccccc1)c1ccccn1 | Non-toxic | Non-toxic | Non-toxic | 106 | 14 nM | Non-toxic | – | – | – | 1490 nM | –
22 | – | CNC(=S)N/N=C(\c1ccc(C(C)(C)C)cc1)c1ccccn1 | Non-toxic | Non-toxic | Non-toxic | 164 | 15 nM | Non-toxic | – | – | – | 2460 nM | –
23 | Active | Cc1ccc(/C(=N\NC(N)=S)c2ccccn2)cc1 | Toxic | Toxic | Toxic | > 85 | 146 nM | Toxic | 8% | – | – | > 12500 nM | –
